Experimental findings from ChEMBL document CHEMBL3860091, “Synthesis and activity of newly designed aroxyalkyl or aroxyethoxyethyl derivatives of piperazine on the cardiovascular and the central nervous systems” (Bioorg Med Chem Lett, 2016) are described below.

Data set [1] relates to Mus musculus. The data set is described as follows: Toxicity in albino Swiss (CD-1) mouse assessed as effect on spontaneous locomotor activity by measuring number of crossings at 10 mg/kg, ip administered 30 mins prior to test measured for last 4 mins of 6 mins observation (reference value: 191.5 to 225.4). The note with it: in vivo. Type of data set: organism-based.
For data set [2], the target named is T1, Adrenergic receptor alpha-2 (Rattus norvegicus, UniProt P22086+P19328+P22909).
T1 sequence (P22086 whole entry): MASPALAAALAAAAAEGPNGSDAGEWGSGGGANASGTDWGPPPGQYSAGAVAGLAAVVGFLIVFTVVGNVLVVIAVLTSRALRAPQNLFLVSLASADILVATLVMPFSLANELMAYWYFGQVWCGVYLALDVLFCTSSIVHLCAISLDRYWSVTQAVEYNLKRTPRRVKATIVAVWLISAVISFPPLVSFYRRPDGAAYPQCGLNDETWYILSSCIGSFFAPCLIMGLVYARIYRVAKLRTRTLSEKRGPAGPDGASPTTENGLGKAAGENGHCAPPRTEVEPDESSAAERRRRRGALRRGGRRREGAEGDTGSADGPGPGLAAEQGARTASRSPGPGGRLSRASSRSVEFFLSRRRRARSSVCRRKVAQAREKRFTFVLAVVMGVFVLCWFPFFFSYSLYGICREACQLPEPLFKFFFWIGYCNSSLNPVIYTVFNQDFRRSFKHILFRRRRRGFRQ
T1 sequence (P19328 whole entry): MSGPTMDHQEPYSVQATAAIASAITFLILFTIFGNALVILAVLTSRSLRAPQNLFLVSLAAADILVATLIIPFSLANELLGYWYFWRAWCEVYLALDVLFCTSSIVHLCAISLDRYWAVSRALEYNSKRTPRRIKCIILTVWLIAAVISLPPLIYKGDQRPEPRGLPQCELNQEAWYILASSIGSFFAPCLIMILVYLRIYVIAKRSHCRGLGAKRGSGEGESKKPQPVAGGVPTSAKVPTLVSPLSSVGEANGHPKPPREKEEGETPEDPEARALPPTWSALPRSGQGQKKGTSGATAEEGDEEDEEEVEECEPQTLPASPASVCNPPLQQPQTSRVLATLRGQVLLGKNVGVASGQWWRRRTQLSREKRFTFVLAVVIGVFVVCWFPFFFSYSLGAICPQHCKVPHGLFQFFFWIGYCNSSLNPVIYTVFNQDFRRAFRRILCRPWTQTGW
T1 sequence (P22909 whole entry): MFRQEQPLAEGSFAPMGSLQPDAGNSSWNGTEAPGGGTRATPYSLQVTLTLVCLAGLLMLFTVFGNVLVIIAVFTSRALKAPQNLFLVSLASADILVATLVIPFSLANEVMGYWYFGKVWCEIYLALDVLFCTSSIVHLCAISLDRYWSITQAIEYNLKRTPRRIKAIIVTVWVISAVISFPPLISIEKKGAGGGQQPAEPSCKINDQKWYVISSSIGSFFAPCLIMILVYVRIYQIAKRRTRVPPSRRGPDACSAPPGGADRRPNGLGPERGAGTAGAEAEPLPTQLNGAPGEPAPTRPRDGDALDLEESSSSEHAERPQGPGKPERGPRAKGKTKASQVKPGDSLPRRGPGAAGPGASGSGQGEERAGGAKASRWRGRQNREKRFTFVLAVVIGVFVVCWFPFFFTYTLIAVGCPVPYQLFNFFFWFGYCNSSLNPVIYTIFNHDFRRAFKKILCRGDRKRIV
The data set is described as follows: Displacement of [3H]clonidine from alpha2 adrenergic receptor in rat brain cerebral cortex after 25 mins by microbeta scintillation counting method. Type of data set: tissue-based. On the technique in general: In a radioligand displacement assay an active substance lowers the binding of a labelled ligand.

A short description of data set [3]: Antidepressant-like activity in albino Swiss (CD-1) mouse assessed as immobility time at 5 mg/kg, ip administered 30 mins prior to test measured for last 4 mins of 6 mins observation by forced swim test (reference value: 178.3 +/- 12.3 sec). Type of data set: functional, organism-based.
Data set [4] addresses Adrenergic receptor alpha-1 (Rattus norvegicus) (UniProt P15823+P23944+P43140). The data set is described as follows: Antagonist activity at alpha1 adrenergic receptor in Wistar rat aorta assessed as inhibition of naradrenaline-induced aortic contraction preincubated for 30 mins followed by naradrenaline stimulation for 3 hrs at 60 mins interval in presence of alpha2 adrenergic receptor blocker yohimbine and beta adrenergic receptor blocker propranolol.

Data set [5] concerns Mus musculus. Kind of data set: Toxicity in albino Swiss (CD-1) mouse assessed as effect on spontaneous locomotor activity by measuring number of crossings at 5 mg/kg, ip administered 30 mins prior to test measured for last 4 mins of 6 mins observation (reference value: 191.5 to 225.4). Type of data set: organism-based. The following applies: in vivo.
Data set [6] concerns Rattus norvegicus. The data set is described as follows: Hypotensive activity in normotensive anesthetized Wistar rat assessed as diastolic blood pressure at 0.5 mg/kg, iv measured 20 mins post dose (reference value: 81.6 to 115.2 mmHg). Type of data set: functional.
The test system of data set [7] is Rattus norvegicus. Kind of data set: Hypotensive activity in normotensive anesthetized Wistar rat assessed as diastolic blood pressure at 0.5 mg/kg, iv measured 10 mins post dose (reference value: 81.6 to 115.2 mmHg). Type of data set: functional.
Data set [8] relates to Rattus norvegicus. The data set is described as follows: Hypotensive activity in normotensive anesthetized Wistar rat assessed as diastolic blood pressure at 0.5 mg/kg, iv measured 60 mins post dose (reference value: 81.6 to 115.2 mmHg). Type of data set: functional.
The test system of data set [9] is Rattus norvegicus. Kind of data set: Hypotensive activity in normotensive anesthetized Wistar rat assessed as systolic blood pressure at 0.5 mg/kg, iv measured 5 mins post dose (reference value: 107.4 to 148.3 mmHg). Type of data set: functional.
For data set [10], the system named is Rattus norvegicus. The data set is described as follows: Hypotensive activity in normotensive anesthetized Wistar rat assessed as systolic blood pressure at 0.5 mg/kg, iv measured 30 mins post dose (reference value: 107.4 to 148.3 mmHg). Type of data set: functional.
Data set [11] concerns Rattus norvegicus. The data set is described as follows: Hypotensive activity in normotensive anesthetized Wistar rat assessed as diastolic blood pressure at 0.5 mg/kg, iv measured 30 mins post dose (reference value: 81.6 to 115.2 mmHg). Type of data set: functional.
The subject of data set [12] is Rattus norvegicus. Kind of data set: Hypotensive activity in normotensive anesthetized Wistar rat assessed as systolic blood pressure at 0.5 mg/kg, iv measured 60 mins post dose (reference value: 107.4 to 148.3 mmHg). Type of data set: functional.
For data set [13], the system named is Rattus norvegicus. Kind of data set: Hypotensive activity in normotensive anesthetized Wistar rat assessed as systolic blood pressure at 0.5 mg/kg, iv measured 10 mins post dose (reference value: 107.4 to 148.3 mmHg). Type of data set: functional.
Data set [14] has as its system Rattus norvegicus. The data set is described as follows: Hypotensive activity in normotensive anesthetized Wistar rat assessed as diastolic blood pressure at 0.5 mg/kg, iv measured 5 mins post dose (reference value: 81.6 to 115.2 mmHg). Type of data set: functional.
The test system of data set [15] is Rattus norvegicus. Kind of data set: Hypotensive activity in normotensive anesthetized Wistar rat assessed as systolic blood pressure at 0.5 mg/kg, iv measured 20 mins post dose (reference value: 107.4 to 148.3 mmHg). Type of data set: functional.
The subject of data set [16] is Rattus norvegicus. Kind of data set: Hypotensive activity in normotensive anesthetized Wistar rat assessed as systolic blood pressure at 0.1 mg/kg, iv measured 60 mins post dose (reference value: 107.4 to 148.3 mmHg). Type of data set: functional.
Data set [17] concerns Rattus norvegicus. Kind of data set: Hypotensive activity in normotensive anesthetized Wistar rat assessed as systolic blood pressure at 0.1 mg/kg, iv measured 30 mins post dose (reference value: 107.4 to 148.3 mmHg). Type of data set: functional.
In data set [18] the test system is Rattus norvegicus. Kind of data set: Hypotensive activity in normotensive anesthetized Wistar rat assessed as diastolic blood pressure at 0.1 mg/kg, iv measured 5 mins post dose (reference value: 81.6 to 115.2 mmHg). Type of data set: functional.

Chain of Adrenergic receptor alpha-1 (Rattus norvegicus) (P15823 whole entry, looked up): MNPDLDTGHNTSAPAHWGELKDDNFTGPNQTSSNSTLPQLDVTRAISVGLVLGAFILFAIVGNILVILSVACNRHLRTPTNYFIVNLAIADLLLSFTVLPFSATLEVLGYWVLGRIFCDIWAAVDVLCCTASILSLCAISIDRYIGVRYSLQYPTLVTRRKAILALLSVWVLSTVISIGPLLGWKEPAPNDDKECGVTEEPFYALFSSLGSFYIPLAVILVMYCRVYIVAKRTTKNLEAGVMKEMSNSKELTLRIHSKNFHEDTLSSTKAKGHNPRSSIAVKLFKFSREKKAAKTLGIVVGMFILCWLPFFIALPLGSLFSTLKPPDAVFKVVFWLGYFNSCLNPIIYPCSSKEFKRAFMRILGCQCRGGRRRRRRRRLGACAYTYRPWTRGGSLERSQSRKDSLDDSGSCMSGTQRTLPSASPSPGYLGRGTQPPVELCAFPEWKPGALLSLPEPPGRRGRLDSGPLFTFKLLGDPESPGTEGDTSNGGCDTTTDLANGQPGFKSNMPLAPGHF
Chain of Adrenergic receptor alpha-1 (Rattus norvegicus) (P23944 whole entry, looked up): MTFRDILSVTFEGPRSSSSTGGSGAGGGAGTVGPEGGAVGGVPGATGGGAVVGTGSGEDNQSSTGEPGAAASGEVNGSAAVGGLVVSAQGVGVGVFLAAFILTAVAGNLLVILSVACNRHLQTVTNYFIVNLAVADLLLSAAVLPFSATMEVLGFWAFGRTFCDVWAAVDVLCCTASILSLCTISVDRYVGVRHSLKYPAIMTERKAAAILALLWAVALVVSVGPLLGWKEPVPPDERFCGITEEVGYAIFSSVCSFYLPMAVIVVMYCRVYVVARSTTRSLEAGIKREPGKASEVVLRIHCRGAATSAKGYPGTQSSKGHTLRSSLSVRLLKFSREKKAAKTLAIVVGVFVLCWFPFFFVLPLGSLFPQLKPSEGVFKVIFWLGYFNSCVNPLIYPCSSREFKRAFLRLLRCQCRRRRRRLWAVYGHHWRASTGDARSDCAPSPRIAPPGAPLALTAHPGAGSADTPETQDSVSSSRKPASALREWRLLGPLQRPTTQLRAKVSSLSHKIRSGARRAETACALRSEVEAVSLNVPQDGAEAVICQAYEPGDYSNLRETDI
Chain of Adrenergic receptor alpha-1 (Rattus norvegicus) (P43140 whole entry, looked up): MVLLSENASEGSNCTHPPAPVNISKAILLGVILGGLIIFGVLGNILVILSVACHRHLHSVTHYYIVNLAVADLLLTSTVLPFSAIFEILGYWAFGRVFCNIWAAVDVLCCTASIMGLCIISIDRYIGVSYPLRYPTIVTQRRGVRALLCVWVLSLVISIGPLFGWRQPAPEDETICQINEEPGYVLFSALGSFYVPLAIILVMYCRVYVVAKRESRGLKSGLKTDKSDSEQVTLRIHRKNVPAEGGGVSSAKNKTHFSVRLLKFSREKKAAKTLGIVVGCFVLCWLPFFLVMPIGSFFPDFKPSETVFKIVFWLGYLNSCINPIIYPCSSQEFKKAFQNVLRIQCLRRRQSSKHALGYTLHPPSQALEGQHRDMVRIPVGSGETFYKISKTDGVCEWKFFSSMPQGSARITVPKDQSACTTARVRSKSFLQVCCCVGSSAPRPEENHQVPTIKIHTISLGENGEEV

The Ki is a measure of affinity in units of concentration, obtained from inhibition or displacement. Read a low Ki as higher affinity. Broadly, the pKb is −log10 of the Kb, conventionally taken in molar units. With `COc1ccccc1N1CCN(CCOCCOc2cccc(C)c2C)CC1.Cl.Cl`, the Activity with Mus musculus [1] is on record as 190; in the data set with Mus musculus [5], 232.5. The Ki in [2] was determined as 893 nM. Also, the TIME in data set [3] was 0.0339 h. Besides, the inhibition entry in data set [4] was “Dose-dependent effect”. In addition, the pKb in data set [4] stood at 8.76.
`Cc1cccc(OCCN2CCN(c3ccccc3)CC2)c1C.Cl.Cl`: the Ki in [2] is on record as 289 nM. Besides, in data set [4], the inhibition entry is “Dose-dependent effect” and the pKb was determined as 8.75.
Consider `Cc1cccc(Cl)c1OCCCCN1CCN(c2ccccc2)CC1.Cl.Cl`, for which the Activity in the data set with Rattus norvegicus [6] is reported as 102.5 mmHg; with Rattus norvegicus [7], 101 mmHg; in the data set on Rattus norvegicus [8] it was 97 mmHg; in the data set with Rattus norvegicus [9], 135 mmHg; with Rattus norvegicus [10] it was 131.5 mmHg; in the data set on Rattus norvegicus [11], 101.5 mmHg. Besides, the Activity in the data set on Rattus norvegicus [12] turned out to be 130.8 mmHg; in the data set with Rattus norvegicus [13], 135.3 mmHg; with Mus musculus [5], 152.4; with Rattus norvegicus [14], 100.5 mmHg; with Rattus norvegicus [15] it was 138 mmHg. The compound further came in with a Ki in data set [2] of 505.7 nM. Moreover, in data set [3], the TIME turned out to be 0.0416 h. In addition, the inhibition result in data set [4] is “Dose-dependent effect”. Further, the pKb in data set [4] came out at 8.37.
`Cc1cccc(OCCCN2CCN(c3ccccc3)CC2)c1C.Cl.Cl` displayed a Ki in [2] of 810 nM. In [4], the inhibition result was “Dose-dependent effect” and the pKb was found to be 7.97.
As for `COc1ccccc1N1CCN(CCCCOc2c(C)cccc2C)CC1.Cl`, the Activity in the data set with Rattus norvegicus [6] stood at 99.8 mmHg; in the data set on Rattus norvegicus [7] it was 100.8 mmHg; with Rattus norvegicus [8], 94.3 mmHg; in the data set with Rattus norvegicus [9] it was 124.2 mmHg; in the data set with Rattus norvegicus [10], 119.3 mmHg; in the data set on Rattus norvegicus [16], 127.7 mmHg. The Activity is on record as 98.8 mmHg in the data set with Rattus norvegicus [11]; 115.3 mmHg in the data set with Rattus norvegicus [12]; 130.3 mmHg in the data set on Rattus norvegicus [17]; 122.7 mmHg with Rattus norvegicus [13]; 102 mmHg with Rattus norvegicus [14]; 112.7 mmHg in the data set on Rattus norvegicus [18]. In addition, the Activity in the data set with Rattus norvegicus [15] came to 121.7 mmHg. The same compound returned a Ki in data set [2] of 370.5 nM. The inhibition result in data set [4] was “Dose-dependent effect”. Besides, the pKb in [4] came out at 8.54.
